Patent US20240425478A1, “CYCLOPENTYLPYRAZOLE CDK2 INHIBITORS” (Genentech, Inc., priority 2021, published 2024)
Read-outs that look alike come from different tables or passages of the source.

What was measured:
[1] = target: T1, Cyclin Dependent Kinase 4/Cyclin D3 (CDK4-cycD3) (Homo sapiens, UniProt P11802); test: CDK4-cycD3 TR-FRET (LANCE) enzyme assay; format: biochemical; conditions: for Ki: Table O, enzymatic assay; for FS CDK4/CDK2: fold selectivity, enzymatic Ki ratio
T1 construct: purchased Carna Biosciences 04-105
Method in brief: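 Compound dose responses pre-incubated 30 min with enzyme mix in 50 mM HEPES pH 7.5, 10 mM MgCl2, 2 mM TCEP, 0.05% BGG, 0.01% Brij 35. Reaction quenched with EDTA (15 mM final); Eu-anti-phospho-4E-BP1 TR-FRET detection, acceptor/donor ratio. Ki derived by Morrison equation.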

[2] = tested on: OVISE (JCRB1043, CCNE1-amplified); test: OVISE EdU incorporation cell proliferation assay (CDK2-dependent); format: cell-based; conditions: for IC50: cellular assay, read-out: CDK2 OVISE IC50; for FS SKOV-3/OVISE / FS p-H3/OVISE: fold selectivity; for FS p-H3/OVISE: cellular p-H3 IC50 over OVISE IC50; for increased fold-selectivity SKOV-3/OVISE over Comparator C: (+) sign after FS SKOV-3/OVISE; for improvement in CDK2 OVISE cell potency over Comparator C: Comparator C 5.5 μM
Method in brief: (§1)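 EdU incorporation (0.5 μM final, last 8 h) follows a 16 h compound exposure at 37 °C, 5% CO2 in RPMI plus 10% FBS, 0.5% DMSO. After fixation, imaging scores EdU-positive cells; a 4-parameter logistic fit of that fraction gives IC50.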

SKOV-3 (ATCC HTB-77) = test: SKOV-3 EdU incorporation cell proliferation assay (CDK4/6-dependent); format: cell-based; conditions: for IC50: Homo sapiens, cellular assay, read-out: CDK4/6 SKOV-3 IC50; for FS SKOV-3/OVISE: fold selectivity, cellular IC50 ratio
Method in brief: as §1

[3] = target: T2, Cyclin Dependent Kinase 2/Cyclin E1 (CDK2-cycE1) (Homo sapiens, UniProt P24941); test: CDK2-cycE1 TR-FRET (LANCE) enzyme assay; format: biochemical; conditions: for Ki: enzymatic assay, read-out: CDK2 Ki; for FS CDK1/CDK2 / FS CDK4/CDK2: fold selectivity; for increased fold-selectivity CDK1/CDK2 over Comparator C: (+) sign after FS CDK1/CDK2; for increased fold-selectivity CDK4/CDK2 over Comparator C: (+) sign after FS CDK4/CDK2;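 as to improvement in potency against CDK2 (Ki) over Comparator C: fold lower CDK2 Ki than comparator c (Ki 0.032 µM)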
T2 construct: purchased ProQinase 0050-0055-1
Method in brief: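 Kinase reaction buffer: 50 mM HEPES pH 7.5, 10 mM MgCl2, 2 mM TCEP, 0.05% BGG, 0.01% Brij 35, with 30 min compound–enzyme pre-incubation.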

HCT116 cells = test: p-H3 HCT-116 mitotic release cell proliferation assay (cellular CDK1); format: cell-based; conditions: Homo sapiens, HCT-116; Table O, cellular assay; read-out: CDK1 p-H3 IC50
Experimental: Inhibition of cellular CDK1 determined by release of cells from nocodazole-induced mitotic arrest, as measured by decrease in phospho-Histone H3. Histone H3 (Ser 10) level is detected in cell lysates by producing a Fluorescence Resonance Energy Transfer (FRET) signal between two antibodies, Phospho-Histone H3 Cryptate (acting as the donor) and Phospho-Histone H3 d2 (acting as the acceptor).
Plates are allowed to rest overnight at 37° C./5% CO2. The following morning, nocodazole is diluted in complete medium, and 5 μL is added to each test well and positive control well for a final concentration of 500 nM. Plates are then incubated for 16 hours at 37° C./5% CO2. […] 10 μL of diluted compound is then transferred to the cell plate (final DMSO concentration 0.1%). Cell plates are then incubated for 4 hours in 37° C. 5% CO2. A cell lysis buffer is prepared on ice using reagents from the Phospho-Histone H3 (Ser10) cellular kit (Cisbio-64HH3PEG). Supernatant is discarded from the cell plate and 80 μL of the supplemented cell lysis buffer (1:99 dilution of the Blocking Reagent and the 1× cell lysis buffer provided in the kit) is added to each of the experimental wells. The cell lysis reaction is allowed to proceed at room temperature while shaking vigorously for 30 minutes. The 384-well HTRF (Homogeneous Time Resolved Fluorescence) plate is prepared by adding 2 μL of each diluted antibody (Phospho-Histone H3 Cryptate antibody and Phospho-Histone H3 d2 antibody diluted 19:1 in a detection buffer) and 12 μL of the supplemented cell lysis buffer to each well in the HTRF plate. 4 μL of the cell lysate is added to the prepared HTRF plate which is then sealed and the reaction is allowed to proceed for a minimum of 2 hours at room temperature.

[4] = target: T3, Cyclin Dependent Kinase 1/Cyclin A2 (CDK1-cycA2) (Homo sapiens, UniProt P06493); test: CDK1-cycA2 TR-FRET (Lance) enzyme assay; format: biochemical; conditions: for Ki: Table O, enzymatic assay; for FS CDK1/CDK2: fold selectivity, enzymatic Ki ratio
T3 construct: purchased ProQinase 0134-0054-1
Method in brief: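 TR-FRET (Lance) detection of phospho-4E-BP1 with a europium-labelled antibody after EDTA quench (15 mM final); signal taken as acceptor/donor ratio. Enzyme and compound were pre-incubated 30 min in HEPES pH 7.5 buffer with MgCl2, TCEP, BGG and Brij 35. Ki derived by Morrison fit.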

[5] = Table O, cellular SKOV-3 IC50 over OVISE IC50
[6] = Table Q, in brackets after OVISE IC50
[7] = Table O, enzymatic CDK1 Ki over CDK2 Ki
[8] = Table O, enzymatic CDK4 Ki over CDK2 Ki

T3 sequence (P06493 whole entry): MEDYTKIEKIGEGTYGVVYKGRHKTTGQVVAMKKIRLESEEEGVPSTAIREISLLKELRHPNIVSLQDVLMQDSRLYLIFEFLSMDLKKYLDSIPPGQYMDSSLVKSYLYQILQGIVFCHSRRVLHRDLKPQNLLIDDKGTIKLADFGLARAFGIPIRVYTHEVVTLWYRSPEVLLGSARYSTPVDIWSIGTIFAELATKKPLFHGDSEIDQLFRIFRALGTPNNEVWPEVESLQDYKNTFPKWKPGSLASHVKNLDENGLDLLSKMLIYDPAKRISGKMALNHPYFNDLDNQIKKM
T3 sequence (P20248 whole entry partner): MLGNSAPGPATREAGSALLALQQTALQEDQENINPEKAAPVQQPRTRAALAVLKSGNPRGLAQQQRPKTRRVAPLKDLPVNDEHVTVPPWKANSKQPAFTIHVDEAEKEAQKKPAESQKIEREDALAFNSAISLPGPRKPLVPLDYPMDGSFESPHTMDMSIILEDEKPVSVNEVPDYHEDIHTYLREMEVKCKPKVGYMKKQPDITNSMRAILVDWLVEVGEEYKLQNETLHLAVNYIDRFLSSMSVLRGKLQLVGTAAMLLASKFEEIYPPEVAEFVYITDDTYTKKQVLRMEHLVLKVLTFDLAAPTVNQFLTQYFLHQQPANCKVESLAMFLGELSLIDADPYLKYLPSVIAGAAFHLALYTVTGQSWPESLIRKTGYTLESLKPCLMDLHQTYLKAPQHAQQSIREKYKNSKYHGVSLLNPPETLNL
T1 sequence (P11802 whole entry): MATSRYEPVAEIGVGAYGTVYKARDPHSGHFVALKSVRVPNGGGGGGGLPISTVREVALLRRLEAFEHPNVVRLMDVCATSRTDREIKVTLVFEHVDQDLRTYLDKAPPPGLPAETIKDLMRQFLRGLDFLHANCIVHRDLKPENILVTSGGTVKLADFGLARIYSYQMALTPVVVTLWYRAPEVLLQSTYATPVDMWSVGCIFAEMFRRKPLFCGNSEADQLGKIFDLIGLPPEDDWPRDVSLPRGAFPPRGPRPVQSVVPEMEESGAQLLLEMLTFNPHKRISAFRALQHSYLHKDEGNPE
T1 sequence (P30281 whole entry partner): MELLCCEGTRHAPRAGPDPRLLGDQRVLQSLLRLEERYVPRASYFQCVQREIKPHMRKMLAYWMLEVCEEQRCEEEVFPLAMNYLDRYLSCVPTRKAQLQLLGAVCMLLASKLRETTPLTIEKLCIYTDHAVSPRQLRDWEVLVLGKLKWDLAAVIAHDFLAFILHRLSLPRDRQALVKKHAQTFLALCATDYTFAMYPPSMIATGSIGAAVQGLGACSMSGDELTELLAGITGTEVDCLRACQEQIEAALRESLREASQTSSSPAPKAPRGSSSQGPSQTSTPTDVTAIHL

| Structure (SMILES) | Ki [1] | IC50 ([2]; Table O) | FS SKOV-3/OVISE [2, 5] | FS p-H3/OVISE ([2]; Table O) | increased fold-selectivity SKOV-3/OVISE over Comparator C ([2]; Table Q) | FS SKOV-3/OVISE ([2]; Table Q, cellular) | improvement in CDK2 OVISE cell potency over Comparator C [2, 6] | IC50 (SKOV-3 (ATCC HTB-77); SK-OV-3, Table O) | IC50 (SKOV-3 (ATCC HTB-77); SK-OV-3, Table Q) | improvement in potency against CDK2 (Ki) over Comparator C [3] | Ki ([3]; Table O) | FS CDK1/CDK2 [3, 7] | FS CDK4/CDK2 [3, 8] | increased fold-selectivity CDK1/CDK2 over Comparator C ([3]; Table Q) | increased fold-selectivity CDK4/CDK2 over Comparator C ([3]; Table Q) | Ki ([3]; Table Q) | FS CDK1/CDK2 ([3]; Table Q, enzymatic) | FS CDK4/CDK2 ([3]; Table Q, enzymatic) | IC50 (HCT116 cells) | Ki [4] | further results |
| --- | --- | --- | --- | --- | --- | --- | --- | --- | --- | --- | --- | --- | --- | --- | --- | --- | --- | --- | --- | --- | --- |
| CC(C)NC(=O)O[C@@H]1CC[C@H](c2cc(Nc3cccnc3)n[nH]2)C1 [Example 2A, (1R,3S)-3-(3-(pyridin-3-ylamino)-1H-pyrazol-5-yl)cyclopentyl isopropylcarbamate] | 75 nM | 110 nM | 20 | 0.66 | (+) (The (+) sign in Table Q signifies desirable increased fold-selectivity of the exemplary compounds over Comparator C) | 20 | 50 fold | 2200 nM | 2200 nM | 19 fold | 1.7 nM | 42 | 44 | (+) (The (+) sign in Table Q signifies desirable increased fold-selectivity of the exemplary compounds over Comparator C) | (+) (The (+) sign in Table Q signifies desirable increased fold-selectivity of the exemplary compounds over Comparator C) | 1.7 nM | 42 | 44 | 94 nM | 71 nM | FS CDK4/CDK2 increased over Comparator D, (+) sign ([1]; Table R): (+); FS CDK4/CDK2 ([1]; Table R): 44; FS CDK4/CDK2 ([1]; Table S): 44; CDK2 cell potency compared with Comparator E ([2]; CDK2 OVISE cellular assay data): more potent CDK2 cell inhibitors compared to Comparator E; CDK2 OVISE IC50 fold change in potency versus Comparator D ([2]; Table R, in brackets after OVISE IC50): 35 fold; CDK2 OVISE IC50 fold change in potency versus Comparator E ([2]; Table S, in brackets after OVISE IC50): 1.5 fold; IC50 (SKOV-3 (ATCC HTB-77); SK-OV-3, Table R): 2200 nM; IC50 (SKOV-3 (ATCC HTB-77); SK-OV-3, Table S): 2200 nM; selectivity for CDK2 over CDK4 compared with Comparator E (SKOV-3 (ATCC HTB-77); SKOV-3/OVISE fold-selectivity cellular assay data): increase in selectivity for CDK2 over CDK4; FS SKOV-3/OVISE increased over Comparator D, (+) sign (SKOV-3 (ATCC HTB-77); Table R): (+); FS SKOV-3/OVISE (SKOV-3 (ATCC HTB-77); Table R): 20; FS SKOV-3/OVISE increased over Comparator E, (+) sign (SKOV-3 (ATCC HTB-77); Table S): (+); FS SKOV-3/OVISE (SKOV-3 (ATCC HTB-77); Table S): 20; Ki ([3]; Table R): 1.7 nM; CDK2 Ki fold change in potency versus Comparator D ([3]; Table R, in brackets after CDK2 Ki): 1.6 fold; Ki ([3]; Table S): 1.7 nM; CDK2 Ki fold change in potency versus Comparator E ([3]; Table S, in brackets after CDK2 Ki): 0.3 fold; FS CDK1/CDK2 increased over Comparator D, (+) sign ([4]; Table R): (+); FS CDK1/CDK2 ([4]; Table R): 42; FS CDK1/CDK2 ([4]; Table S): 42 |
| CC(C)NC(=O)O[C@@H]1CC[C@H](c2cc(Nc3cncnc3)n[nH]2)C1 [Example 2B, (1R,3S)-3-(3-(pyrimidin-5-ylamino)-1H-pyrazol-5-yl)cyclopentyl isopropylcarbamate] | 390 nM | 230 nM | >70 | 1.1 | (+) (The (+) sign in Table Q signifies desirable increased fold-selectivity of the exemplary compounds over Comparator C) | > 70 | 24 fold | > 20000 nM | > 20000 nM | 9 fold | 3.4 nM | 47 | 120 | (+) (The (+) sign in Table Q signifies desirable increased fold-selectivity of the exemplary compounds over Comparator C) | (+) (The (+) sign in Table Q signifies desirable increased fold-selectivity of the exemplary compounds over Comparator C) | 3.4 nM | 47 | 120 | 2900 nM | 160 nM | – |
| CC(C)NC(=O)O[C@@H]1CC[C@H](c2cc(Nc3ccncn3)n[nH]2)C1 [Example 2C, (1R,3S)-3-(3-(pyrimidin-4-ylamino)-1H-pyrazol-5-yl)cyclopentyl isopropylcarbamate] | 95 nM | 110 nM | 37 | 0.47 | (+) (The (+) sign in Table Q signifies desirable increased fold-selectivity of the exemplary compounds over Comparator C) | 37 | 50 fold | 4100 nM | 4100 nM | 32 fold | 1.1 nM | 39 | 86 | (+) (The (+) sign in Table Q signifies desirable increased fold-selectivity of the exemplary compounds over Comparator C) | (+) (The (+) sign in Table Q signifies desirable increased fold-selectivity of the exemplary compounds over Comparator C) | 1.1 nM | 39 | 86 | 52 nM | 43 nM | – |
